System: type II alveolar epithelial cells
Assay: Three-dimensional subculture of type II alveolar epithelial cells (AT2-P0 to AT2-P1) in medium for Step 5 with additives, SFTPC-GFP reporter cells
Format: cell-based, human
Conditions: for percentage of type II alveolar epithelial cells maintained of the whole including fibroblasts used for coculture / percentage of type II alveolar epithelial cells maintained relative to the epithelial cell component: AT2-P1, medium for Step 5 plus additive (300 ng/ml WIF, 100 ng/ml IGF2, 10 ng/ml EGF, 20 ng/ml NRG1 β, 3 μM CHIR99021); for percentage of type II alveolar epithelial cells maintained of the whole including fibroblasts used for coculture: control 9.4%; for percentage of type II alveolar epithelial cells maintained relative to the epithelial cell component: control 48.4%; for maintenance of type II alveolar epithelial cells compared with medium supplemented with EGF, NRG1β, CHIR99021: WIF1 300 ng/ml or IGF2 100 ng/ml vs EGF 10 ng/ml, NRG1β 20 ng/ml, CHIR99021 3 μM; for maintenance of type II alveolar epithelial cells in subculture (FIG. 17): medium for Step 5 supplemented with WIF1 (300 ng/ml) or IGF2 (100 ng/ml)
Procedure: On Day 35 of type II alveolar epithelial cell induction in Example 1 (i.e., upon completion of Step 5), the cell mass composed of fibroblasts and spheroids subjected to three-dimensional coculture was removed from the Cell Culture Inserts. The removed cell mass was cut into small pieces of approximately 1 mm with the use of a clean surgical knife, the cells were recovered with the addition of PBS, and centrifugation was carried out at 900 rpm for 5 minutes to remove the supernatant. 0.1% Trypsin/EDTA was added to the precipitate and incubation was then carried out at 37° C. for 15 minutes while adequately repeating pipetting.
Subsequently, DMEM supplemented with 2% FBS was added to neutralize trypsin, followed by centrifugation at 4° C. and 900 rpm for 7 minutes. The supernatant was suction-removed, 1% BSA/PBS was added to the remaining cell pellet, and the resultant was centrifuged again at 4° C. and 900 rpm for 5 minutes. The cell pellet was suspended in 1% BSA/PBS, the mouse anti-human Ep-CAM antibody (Santa Cruz) was added thereto, and the reaction was allowed to proceed at 4° C. for 20 minutes.
Subsequently, the cells were washed 2 times with 1% BSA/PBS, the ALEXA FLUOR® 647-labeled anti-mouse antibody (Life Technologies) was added thereto, and the reaction was allowed to proceed at 4° C. for 20 minutes. After the reaction product was washed 2 times with 1% BSA/PBS, propidium iodide was added in the end, and SFTPC-GFP-positive cells were isolated via FACS with the use of BD FACSAria® II or Aria® III (BD Biosciences). The isolated cells were used as the type II alveolar epithelial cells (AT2-P0).
When type II alveolar epithelial cells were to be subcultured, the type II alveolar epithelial cells were mixed with human fetal lung fibroblasts immediately after isolation, or cryopreserved type II alveolar epithelial cells were mixed with human fetal lung fibroblasts at a ratio of 1:50, the cell suspension of the medium for Step 5 comprising the cells at a cell density of 2.5×10^6 cells/ml and Y-27632 at the final concentration of 10 μM was mixed with MATRIGEL® (Corning) at a ratio of 1:1 at a low temperature, the resultant was immediately added to the upper layer of the Cell Culture Inserts, and the medium for Step 5 was added to the lower layer. The amount to be added to the upper layer of the 12-well plate Cell Culture Inserts is preferably 200 to 400 μL and the amount to be added to the lower layer thereof is preferably 1 ml.
On the first 2 days after the subculture, Y-27632 was added to the medium for Step 5 to the final concentration of 10 μM. Thereafter, the medium for Step 5 of the lower layer was selectively exchanged with another medium every other day. The type II alveolar epithelial cells were isolated 14 days after the initiation of culture, and culture was continued by repeating the three-dimensional coculture with the human fetal lung fibroblasts. As a subculture goes on to the following generation, the cells were designated as AT2-P1, AT2-P2. . . .

Row | Compound | percentage of type II alveolar epithelial cells maintained of the whole including fibroblasts used for coculture [%] | percentage of type II alveolar epithelial cells maintained relative to the epithelial cell component [%] | maintenance of type II alveolar epithelial cells compared with medium supplemented with EGF, NRG1β, CHIR99021 | maintenance of type II alveolar epithelial cells in subculture (FIG. 17)
1 | Cc1c[nH]c(-c2cnc(NCCNc3ccc(C#N)cn3)nc2-c2ccc(Cl)cc2Cl)n1 [CHIR99021, 6-[2-[4-(2,4-dichlorophenyl)-5-(4-methyl-1H-imidazol-2-yl)pyrimidin-2-ylamino]-ethylamino]pyridine-3-carbonitrile, reference compound] | 0.5 | 23.8 | – | –
2 | EGF: EGF (Wako), medium additive | 1.2 | 5.3 | – | –
3 | IGF2: protein encoded by the polynucleotide shown in NCBI Accession Number NM_000612 (R&D Systems) | 16.6 | 58.0 | maintained with higher efficiency | efficiently maintained
4 | WIF1: WNT signal inhibitor; protein encoded by the polynucleotide shown in NCBI Accession Number NM_007191 (R&D Systems) | 20.2 | 54.4 | maintained with higher efficiency | efficiently maintained
